In patent publication US20020068749A1, “AIDS REMEDY” (priority 1996, published 2002):
In brackets after ≈: the same amount, converted by molar mass.

How the values were obtained:
[1] = tested on: KNI-272 resistant strain; test: microbe, parasite or virus in culture; type: cell-based, HIV
Source text: (§1) A drug resistant strain virus is a resistance strains induced in a cell culture system in vitro while maintaining infection in the presence of each medicament through generations.

[2] = tested on: HIV Wild strain (IIIB); test: Anti-virus activity IC50 against wild strain; type: cell-based; conditions: Wild strain (IIIB)
[3] = tested on: Indinavir resistant strain; test: Anti-virus activity IC50 against Indinavir resistant strain; type: cell-based, HIV; conditions: Human immunodeficiency virus 1, read-out: Anti-virus activity IC50
Source text: as §1

[4] = Change of concentration in plasma over time after oral administration to rats (KNI-272 with Indinavir or Nelfinavir); conditions: for AUC: rat, plasma, po, 40 mg/kg, AUC value of Indinavir
Procedure: In this example, the change in concentration in blood of KNI-272 over time when the KNI-272 was orally administered in combination with Indinavir, i.e. the change in the concentration of a non-binding type of drug in plasma over time, was measured to evaluate the effect of drug interactions on fluctuations of dynamics in vivo. A commercially available Indinavir for oral administration, CRIXIVAN™ (manufactured by Merck), was used after dissolving Indinavir sulfate in a prescribed concentration. As KNI-272, a suspension prepared from a fine powder of KNI-272 was used. Rats were used as test animals. […] In addition, each compound was individually administered to control groups to evaluate the dynamics in vivo. The animals were fasted for 16 hours before administration. The measurement of the change in the non-binding drug concentration in plasma over time was carried out according to a conventional method using blood samples collected from the test animals.
The method of evaluation was applied to the above-mentioned system of Indinavir and KNI-272 was followed. […] In this example, a dosage of 50 mg/kg was selected for both Nelfinavir and KNI-272.

[5] = Dynamics in vivo (concentration in plasma over time) of KNI-272 and Ritonavir in dogs
[6] = tested on: IIIB strain of HIV-1 in CEM-SS cells; test: Measurement of anti-HIV activity in vitro (XTT method, control of cellular denaturalization due to HIV infection); type: cell-based
Procedure: An increase in the synergistic anti-virus activity in the combined use of KNI-272 and Saquinavir is shown by a specific experimental example. The anti-virus activity was evaluated as the capability of controlling generation of infectious virus particles in vitro. The effect of cell extinction to HIV infection was calculated when Saquinavir methanesulfonate and KNI-272 respectively or both were added to a culture liquid, to determine the concentration region where a synergistic increase in the anti-virus activity in the combined use of the two compounds is conspicuous. Measurement of the anti-virus activity in vitro was carried out according to the following procedure. In the description hereinafter the concentration of methanesulfonate is indicated as the concentration converted into Saquinavir. The concentration of KNI-272 is indicated as the concentration of the compound itself.
A IIIB strain of HIV-1 was used as an HIV wild strain and CEM-SS cells were used as infected cells in the above-mentioned culture. The amount of HIV sufficient to kill all CEM-SS cells 6 days after inoculation (multiplicy of infection, MOI of 0.01-0.05) was determined and this amount of HIV was added. A 96 well micro-titre plate was used to inoculate 5×10^3 CEM-SS cells per well in this case. At the time of inoculation of cells, a test compound was added to the culture medium to a prescribed concentration. Three specimens were used for each test level. The following controls were used (1) as calorimetric controls: a sample with only a test compound added to the culture medium, (2) as a cytotoxic control for a test compound: a sample with only cells and the test compound added to the culture medium, (3) as a virus control: a sample with the cells inoculated with only a virus, and (4) as a cell survival control, a sample consisting only of cells. In addition, AZT and DDC which are compounds with a known anti-HIV activity were used as positive controls. After the cells were added, they were inoculated with the infecting virus, followed by incubation at 37° C.for 6 days. Cellular denaturalization due to HIV infection was colorimetrically measured for each well. Employing the colorimetry, was the metabolism from XTT Tetrazolium to XTT Formazan was evaluated. This colorimetry is called the XTT method (see Weislow et al., Journal of the National Cancer Institute 81, 577-586 (1989)). After the above-mentioned incubation, a prescribed amount of XTT was added to each well and incubation was continued for a further four hours at 37° C. to measure the amount of XTT Formazan produced by metabolism by means of calorimetric quantitation.
The anti-HIV activity for each experimental level was calculated by comparing the number of undenatured cells measured by the above-mentioned assay with the corresponding number of cells in the four control groups. Specifically, the proportion of cellular denaturalization due to HIV infection controlled by the addition of the test compound was calculated. A systematic deviation between the several experiments was corrected based on the results of AZT and ddC used as positive controls.
In this example, 0 ng/ml and several concentrations in the range of 0.625-10.0 ng/ml of Saquinavir methanesulfonate and 0 ng/ml and several concentrations in the range of 0.313-80.0 ng/ml of KNI-272 were used. The results (anti-HIV activities) obtained under these conditions using either one of these medicaments or both medicaments in combination are shown in Table 1.
With regard to this concentration region wherein no synergistic increase can be seemingly identified, a similar evaluation was carried out adding a larger amount of HIV to qualitatively evaluate the presence or absence of a synergistic effect. […] This affords qualitative results rather than quantitative results.
An increase in the synergistic anti-virus activity in the combined use of KNI-272 and Ritonavir is shown by a specific experimental example. […]

[7] = tested on: Ritonavir resistant strain; test: Anti-virus activity IC50 against Ritonavir resistant strain; type: cell-based, HIV; conditions: Ritonavir resistant strain
[8] = Human immunodeficiency virus 1, read-out: Anti-virus activity IC50
[9] = Indinavir 40 mg/kg + KNI-272 40 mg/kg p.o. at the same time

Compound `CC(C)(C)NC(=O)[C@@H]1CN(Cc2cccnc2)CCN1C[C@@H](O)C[C@@H](Cc1ccccc1)C(=O)N[C@H]1c2ccccc2C[C@H]1O` [Indinavir, [1(1S, 2R),5(S)]-2,3,5-trideoxy-N-(2,3-dihydro-2-hydroxy-1H-indane-1-yl)-5-[2-(1,1-dimethylethyl)aminocarbonyl-4-(3-pyridinylmethyl)-1-piperazinyl]-2-(phenylmethyl)-D-erythro-pentonamide, reference compound] has an IC50 [1, 8] of 0.03 µg/mL (≈ 0.0489 µM), an IC50 [2, 8] of 0.009 µg/mL (≈ 0.0147 µM) and an IC50 [3] of 0.576 µg/mL (≈ 0.938 µM). For the same compound, the “increase in maximum concentration in blood value (Cmax) of Indinavir” value [4, 9] was “as much as twice”, the “increase in the AUC value of Indinavir” value [4, 9] was “almost two times” and the AUC ([4]; Indinavir 40 mg/kg p.o. individually) was 17200 ng·h/mL. For the same compound, the AUC ([4]; Indinavir 40 mg/kg p.o. together with KNI-272 40 mg/kg) was 44300 ng·h/mL.

With `CC(C)c1nc(CN(C)C(=O)NC(C(=O)N[C@@H](Cc2ccccc2)C[C@H](O)[C@H](Cc2ccccc2)NC(=O)OCc2cncs2)C(C)C)cs1` (relative stereo) [Ritonavir, [5S-(5R*, 8R*, 10R*,11R*)]-10-hydroxy-2-methyl-5-(1-methylethyl)-1-[2-(1-methylethyl)-4-thiazolyl]-3,6-dioxo-8,11-bis(phenylmethyl)-2,4,7,12-tetraaza-tridecane-13-hydroxyacid 5-thiazolylmethyl ester, reference compound] the “influence of combined use of KNI-272 on the dynamics in vivo of Ritonavir” value ([5]; KNI-272 administered immediately after Ritonavir, dogs) was “no apparent influence”, the “MRT value (index of the half-life of concentration in blood)” value ([5]; medicaments individually administered) was ≥ 180 minutes and more than 180 minutes and the “Anti-HIV activity (%)” value ([6]; Ritonavir 1.25 ng/ml alone) was 2.0%. The “Anti-HIV activity (%)” value ([6]; Ritonavir 2.5 ng/ml alone) was 2.3%, the “Anti-HIV activity (%)” value ([6]; Ritonavir 5.0 ng/ml alone) was 0.5% and the “Anti-HIV activity (%)” value ([6]; Ritonavir 10.0 ng/ml alone) was 8.9%.

With `Cc1c(O)cccc1C(=O)N[C@@H](CSc1ccccc1)[C@H](O)CN1C[C@H]2CCCC[C@H]2C[C@H]1C(=O)NC(C)(C)C` (relative stereo) [Nelfinavir, [3S-[2(2S*, 3S*), 3α, 4α, 8aβ]]-N-1,1-dimethylethyl-decahydro-2-[2-hydroxy-3-[(3-hydroxy-2-methylbenzoyl)amino]-4-(phenylthio)butyl]-3-isoquinolinecarboxamide, reference compound] the “Anti-virus activity IC50” value ([1]; KNI-272 resistant strain) was 0.030 µg/mL, the “Anti-virus activity IC50” value [2] was 0.007 µg/mL and the “Anti-virus activity IC50” value [7] was 0.124 µg/mL. The “AUC value for Nelfinavir” value ([4]; Nelfinavir 50 mg/kg p.o. only) was 130 µg·min/mL, the “AUC value for Nelfinavir” value ([4]; Nelfinavir 50 mg/kg p.o. simultaneously with KNI-272 50 mg/kg) was 215 µg·min/mL and the “increase in AUC value for Nelfinavir” value ([4]; Nelfinavir 50 mg/kg with KNI-272 50 mg/kg vs alone) was ~1.6 times.
